Values of other authors in PMC5762859, “Distribution analysis of epertinib in brain metastasis of HER2-positive breast cancer by imaging mass spectrometry and prospect for antitumor activity” (Scientific Reports, 2018).

Experiments:
[1] = healthy volunteers, single oral 250 mg [14C]-lapatinib; cited from earlier work
[2] = target: T1, breast cancer resistance protein (BCRP) (Homo sapiens, UniProt Q9UNQ0); conditions: cited from earlier work
T1 construct: permeability and efflux ratio of epertinib across Caco-2 cell monolayers; endogenous in cells; host or cells: Caco-2
T1 sequence (Q9UNQ0 1-655): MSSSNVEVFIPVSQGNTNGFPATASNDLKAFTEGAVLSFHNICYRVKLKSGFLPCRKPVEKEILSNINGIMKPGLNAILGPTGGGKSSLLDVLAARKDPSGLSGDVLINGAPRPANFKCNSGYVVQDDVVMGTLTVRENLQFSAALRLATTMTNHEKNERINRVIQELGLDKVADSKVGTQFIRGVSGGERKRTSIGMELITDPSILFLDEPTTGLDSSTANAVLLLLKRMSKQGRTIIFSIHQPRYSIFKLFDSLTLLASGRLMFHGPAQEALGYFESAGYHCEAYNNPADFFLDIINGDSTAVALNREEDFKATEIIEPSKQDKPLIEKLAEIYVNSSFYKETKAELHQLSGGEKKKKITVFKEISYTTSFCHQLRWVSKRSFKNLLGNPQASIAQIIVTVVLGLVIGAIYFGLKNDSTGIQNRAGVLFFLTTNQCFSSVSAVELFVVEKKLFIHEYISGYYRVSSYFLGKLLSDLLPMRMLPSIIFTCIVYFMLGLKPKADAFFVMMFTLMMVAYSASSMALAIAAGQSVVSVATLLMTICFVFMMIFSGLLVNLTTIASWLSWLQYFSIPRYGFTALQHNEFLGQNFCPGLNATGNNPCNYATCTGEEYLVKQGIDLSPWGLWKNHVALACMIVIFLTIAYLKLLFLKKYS

P-glycoprotein (P-gp) = target: T2, P-glycoprotein (P-gp) (Homo sapiens, UniProt P08183); conditions: cited from earlier work
T2 construct: permeability and efflux ratio of epertinib across Caco-2 cell monolayers; endogenous in cells; host or cells: Caco-2
T2 sequence (P08183 whole entry): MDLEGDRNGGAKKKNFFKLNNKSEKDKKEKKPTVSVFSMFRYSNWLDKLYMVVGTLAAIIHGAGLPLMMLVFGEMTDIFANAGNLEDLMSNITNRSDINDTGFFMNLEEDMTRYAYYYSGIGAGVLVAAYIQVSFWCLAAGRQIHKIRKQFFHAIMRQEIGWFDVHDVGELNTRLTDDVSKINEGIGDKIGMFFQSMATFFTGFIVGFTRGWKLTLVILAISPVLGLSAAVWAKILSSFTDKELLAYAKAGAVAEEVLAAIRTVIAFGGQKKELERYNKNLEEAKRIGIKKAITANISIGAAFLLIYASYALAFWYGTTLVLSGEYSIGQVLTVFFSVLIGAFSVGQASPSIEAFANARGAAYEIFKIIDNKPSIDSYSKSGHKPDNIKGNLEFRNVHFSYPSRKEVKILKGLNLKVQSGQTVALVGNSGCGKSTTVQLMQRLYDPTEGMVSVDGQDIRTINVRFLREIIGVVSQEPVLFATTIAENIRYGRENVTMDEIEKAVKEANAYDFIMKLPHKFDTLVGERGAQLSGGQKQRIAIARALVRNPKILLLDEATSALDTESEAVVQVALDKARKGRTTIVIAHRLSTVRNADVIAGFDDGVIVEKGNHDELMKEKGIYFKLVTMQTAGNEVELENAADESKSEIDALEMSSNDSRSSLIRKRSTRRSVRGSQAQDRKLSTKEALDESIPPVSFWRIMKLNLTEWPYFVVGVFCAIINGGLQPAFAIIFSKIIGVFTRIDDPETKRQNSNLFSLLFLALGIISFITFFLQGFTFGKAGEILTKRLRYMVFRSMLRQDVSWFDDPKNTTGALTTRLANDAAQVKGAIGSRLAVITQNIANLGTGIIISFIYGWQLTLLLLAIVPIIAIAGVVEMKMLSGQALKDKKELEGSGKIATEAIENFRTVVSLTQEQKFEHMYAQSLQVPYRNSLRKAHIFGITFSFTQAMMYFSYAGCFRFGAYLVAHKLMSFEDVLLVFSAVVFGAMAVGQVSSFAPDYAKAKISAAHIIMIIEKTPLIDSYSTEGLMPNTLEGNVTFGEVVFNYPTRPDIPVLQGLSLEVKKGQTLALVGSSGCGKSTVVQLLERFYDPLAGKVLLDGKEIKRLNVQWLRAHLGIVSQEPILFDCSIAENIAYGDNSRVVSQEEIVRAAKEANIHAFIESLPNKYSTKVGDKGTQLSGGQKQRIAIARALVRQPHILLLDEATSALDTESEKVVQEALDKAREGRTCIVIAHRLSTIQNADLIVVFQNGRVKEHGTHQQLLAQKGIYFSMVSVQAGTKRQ

[3] = test system: HER2-positive metastatic breast cancer patients; conditions: historical data, combination with trastzumab; cited from earlier work

Row | SMILES | Mean plasma concentration of total radioactivity at Cmax [1] | BCRP substrate [2] | P-gp substrate (P-glycoprotein (P-gp)) | Objective response rate (ORR) [3]
1 | CS(=O)(=O)CCNCc1ccc(-c2ccc3ncn[14c](Nc4ccc(OCc5cccc(F)c5)c(Cl)c4)c3c2)o1.Cc1ccc(S(=O)(=O)O)cc1.O [[^14C]-lapatinib] | 720 ng eq./mL | – | – | –
2 | CN(C)C/C=C/C(=O)Nc1cc2c(Nc3ccc(F)c(Cl)c3)ncnc2cc1O[C@H]1CCOC1 [afatinib] | – | substrates | substrates | –
3 | CCOc1cc2ncc(C#N)c(Nc3ccc(OCc4ccccn4)c(Cl)c3)c2cc1NC(=O)/C=C/CN(C)C [neratinib] | – | substrates | substrates | –
4 | Cc1cc(Nc2ncnc3ccc(NC4=NC(C)(C)CO4)cc23)ccc1Oc1ccn2ncnc2c1 [tucatinib] | – | substrates | substrates | 26%
